Experimental data taken from PubChem BioAssay (NCI).
Where “and” joins values, the source holds several entries; their conditions need not be identical. Identical values can stand only once.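 Cells were grown in 96-well plates and exposed to each compound for 48 hours at five concentrations; endpoints were interpolated linearly between bracketing concentrations, or set to the highest concentration if not reached. GI50 is the concentration that inhibits growth by half. TGI marks complete inhibition of growth.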

Tests used:
Experiment in all cases: NCI tumour cell line growth inhibition, 48 h
786-0 renal = test system: 786-0 renal
A498 renal = test system: A498 renal
A549 NSCLC = test system: A549 NSCLC
ACHN renal = test system: ACHN renal
BT-549 breast = test system: BT-549 breast
CAKI-1 renal = test system: CAKI-1 renal
CCRF-CEM leukemia = test system: CCRF-CEM leukemia
COLO 205 colon = test system: COLO 205 colon
DLD-1 colon = test system: DLD-1 colon
DMS 114 small cell lung = test system: DMS 114 small cell lung
DMS 273 small cell lung = test system: DMS 273 small cell lung
DU-145 prostate = test system: DU-145 prostate
EKVX NSCLC = test system: EKVX NSCLC
HCC-2998 colon = test system: HCC-2998 colon
HCT-116 colon = test system: HCT-116 colon
HCT-15 colon = test system: HCT-15 colon
HL-60(TB) leukemia = test system: HL-60(TB) leukemia
HOP-18 NSCLC = test system: HOP-18 NSCLC
HOP-62 NSCLC = test system: HOP-62 NSCLC
HOP-92 NSCLC = test system: HOP-92 NSCLC
HS 578T breast = test system: HS 578T breast
IGROV1 ovarian = test system: IGROV1 ovarian
K-562 leukemia = test system: K-562 leukemia
KM12 colon = test system: KM12 colon
KM20L2 colon = test system: KM20L2 colon
LOX IMVI melanoma = test system: LOX IMVI melanoma
LXFL 529 NSCLC = test system: LXFL 529 NSCLC
M14 melanoma = test system: M14 melanoma
M19-MEL melanoma = test system: M19-MEL melanoma
MALME-3M melanoma = test system: MALME-3M melanoma
MCF7 breast = test system: MCF7 breast
MDA-MB-231 breast = test system: MDA-MB-231 breast
MDA-MB-435 = test system: MDA-MB-435
MDA-N = test system: MDA-N
MOLT-4 leukemia = test system: MOLT-4 leukemia
NCI-H226 lung = test system: NCI-H226 lung
NCI-H23 lung = test system: NCI-H23 lung
NCI-H460 lung = test system: NCI-H460 lung
NCI-H522 lung = test system: NCI-H522 lung
OVCAR-3 ovarian = test system: OVCAR-3 ovarian
OVCAR-4 ovarian = test system: OVCAR-4 ovarian
OVCAR-5 ovarian = test system: OVCAR-5 ovarian
OVCAR-8 ovarian = test system: OVCAR-8 ovarian
P388 leukemia = test system: P388 leukemia
P388/ADR leukemia = test system: P388/ADR leukemia
PC-3 prostate = test system: PC-3 prostate
RPMI-8226 leukemia = test system: RPMI-8226 leukemia
RXF 393 renal = test system: RXF 393 renal
SF-268 CNS = test system: SF-268 CNS
SF-295 CNS = test system: SF-295 CNS
SF-539 CNS = test system: SF-539 CNS
SK-MEL-2 melanoma = test system: SK-MEL-2 melanoma
SK-MEL-28 melanoma = test system: SK-MEL-28 melanoma
SK-MEL-5 melanoma = test system: SK-MEL-5 melanoma
SK-OV-3 ovarian = test system: SK-OV-3 ovarian
SN12C renal = test system: SN12C renal
SN12K1 renal = test system: SN12K1 renal
SNB-19 CNS = test system: SNB-19 CNS
SNB-75 CNS = test system: SNB-75 CNS
SNB-78 CNS = test system: SNB-78 CNS
SR leukemia = test system: SR leukemia
SW-620 colon = test system: SW-620 colon
T-47D breast = test system: T-47D breast
TK-10 renal = test system: TK-10 renal
U251 CNS = test system: U251 CNS
UACC-257 melanoma = test system: UACC-257 melanoma
UACC-62 melanoma = test system: UACC-62 melanoma
XF 498 CNS = test system: XF 498 CNS

CN(C)CC1CCCC(CN(C)C)C1=O (stereo unspecified)
TGI (786-0 renal): 5.94 µM and 4.61 µM
GI50 (A498 renal): 19.1 µM and > 100 µM
TGI (A498 renal): 34.5 µM and > 100 µM
TGI (A549 NSCLC): 48.1 µM and > 63.6 µM
TGI (ACHN renal): 2.92 µM and 3.52 µM
GI50 (BT-549 breast): 3.24 µM and 19.4 µM
TGI (BT-549 breast): 10.7 µM and 38 µM
GI50 (CAKI-1 renal): 1390 nM and 259 nM
TGI (CAKI-1 renal): 3120 nM and 858 nM
GI50 (CCRF-CEM leukemia): 155 nM and 58.8 nM
TGI (CCRF-CEM leukemia): 559 nM and 210 nM
TGI (COLO 205 colon): 3.4 µM and 9.47 µM
TGI (DLD-1 colon): 4.14 µM
TGI (DMS 114 small cell lung): 3.87 µM
TGI (DMS 273 small cell lung): 26.8 µM
TGI (DU-145 prostate): 29.4 µM
TGI (EKVX NSCLC): 17.8 µM and 14.1 µM
TGI (HCC-2998 colon): 29.5 µM and 36 µM
GI50 (HCT-116 colon): 1660 nM and 3360 nM
TGI (HCT-116 colon): 3.64 µM and 7.98 µM
GI50 (HCT-15 colon): 1.28 µM and 8.54 µM
GI50 (HL-60(TB) leukemia): 612 nM and 2850 nM
TGI (HL-60(TB) leukemia): 2.03 µM and 7.45 µM
TGI (HOP-18 NSCLC): 3.32 µM
GI50 (HOP-62 NSCLC): > 73.1 µM and 20.8 µM
TGI (HOP-62 NSCLC): > 90.6 µM and 43 µM
TGI (HOP-92 NSCLC): 2260 nM
GI50 (HS 578T breast): 3.26 µM and 26.5 µM
TGI (HS 578T breast): > 100 µM and 80.3 µM
TGI (IGROV1 ovarian): 37.2 µM and 38.4 µM
GI50 (K-562 leukemia): 119 nM and 677 nM
TGI (K-562 leukemia): 601 nM
GI50 (KM12 colon): 6.05 µM and 17.2 µM
TGI (KM12 colon): 16.9 µM and 33.3 µM
TGI (KM20L2 colon): 13.2 µM
GI50 (LOX IMVI melanoma): 3.4 µM and 8.45 µM
TGI (LOX IMVI melanoma): 7.09 µM and 30.3 µM
TGI (LXFL 529 NSCLC): 998 nM
GI50 (M14 melanoma): 1.48 µM and 6.11 µM
TGI (M14 melanoma): 3.03 µM and 11.7 µM
TGI (M19-MEL melanoma): 7.24 µM
GI50 (MALME-3M melanoma): 653 nM and 2610 nM
TGI (MALME-3M melanoma): 1.61 µM and 6.54 µM
GI50 (MCF7 breast): 575 nM and 3450 nM
TGI (MCF7 breast): 6 µM and > 41.7 µM
GI50 (MDA-MB-231 breast): 3.9 µM and 16 µM
TGI (MDA-MB-231 breast): 13 µM and 31.2 µM
GI50 (MDA-MB-435): 19.6 µM and 8.54 µM
TGI (MDA-MB-435): 39.1 µM and 23.8 µM
TGI (MDA-N): 25.6 µM and 28.4 µM
GI50 (MOLT-4 leukemia): 293 nM
TGI (MOLT-4 leukemia): 1140 nM and 2080 nM
GI50 (NCI-H226 lung): 18.6 µM and > 46.5 µM
TGI (NCI-H226 lung): 35.6 µM and > 69.2 µM
GI50 (NCI-H23 lung): 5.35 µM and 20.7 µM
TGI (NCI-H23 lung): 18.5 µM and 43.4 µM
TGI (NCI-H460 lung): 38.5 µM and 33.8 µM
GI50 (NCI-H522 lung): 179 nM and 1060 nM
TGI (NCI-H522 lung): 443 nM and 3460 nM
TGI (OVCAR-3 ovarian): 5.47 µM and 3.64 µM
GI50 (OVCAR-4 ovarian): 1.89 µM and 7.01 µM
TGI (OVCAR-4 ovarian): 3.51 µM and 18.5 µM
TGI (OVCAR-5 ovarian): 32.7 µM and 33.7 µM
TGI (OVCAR-8 ovarian): 5.86 µM and 10.6 µM
TGI (P388 leukemia): 2130 nM
TGI (P388/ADR leukemia): 226 nM
GI50 (PC-3 prostate): 18.7 µM and 4.98 µM
TGI (PC-3 prostate): 33.4 µM and 16.9 µM
GI50 (RPMI-8226 leukemia): 125 nM and 458 nM
TGI (RPMI-8226 leukemia): 1530 nM and 2360 nM
TGI (RXF 393 renal): 3.29 µM and 3.25 µM
GI50 (SF-268 CNS): 11.5 µM and 23.4 µM
TGI (SF-268 CNS): 31.7 µM and 65.6 µM
GI50 (SF-295 CNS): 19.3 µM and > 100 µM
TGI (SF-295 CNS): 35.7 µM and > 100 µM
GI50 (SF-539 CNS): 11.3 µM and 1.75 µM
TGI (SF-539 CNS): 21.9 µM and 5.78 µM
TGI (SK-MEL-2 melanoma): 20.6 µM and 35.2 µM
GI50 (SK-MEL-28 melanoma): 2.17 µM and 18.3 µM
TGI (SK-MEL-28 melanoma): 5.21 µM and 33.8 µM
TGI (SK-MEL-5 melanoma): 21 µM and 30.3 µM
GI50 (SK-OV-3 ovarian): 17.8 µM and > 44 µM
TGI (SK-OV-3 ovarian): 31.8 µM and > 58.3 µM
GI50 (SN12C renal): 2.58 µM and 7.36 µM
TGI (SN12C renal): 5.78 µM and 18.4 µM
TGI (SN12K1 renal): 30.4 µM
TGI (SNB-19 CNS): 68 µM and > 65.4 µM
TGI (SNB-75 CNS): 29.8 µM and 31.1 µM
TGI (SNB-78 CNS): 10.3 µM
GI50 (SR leukemia): 254 nM and 803 nM
TGI (SR leukemia): 1640 nM
GI50 (SW-620 colon): 367 nM
TGI (SW-620 colon): 639 nM and 1920 nM
TGI (T-47D breast): 4.23 µM and 3.38 µM
GI50 (TK-10 renal): 2810 nM and 861 nM
TGI (TK-10 renal): 7.88 µM and 2.63 µM
TGI (U251 CNS): 23 µM and 34.6 µM
TGI (UACC-257 melanoma): 4.49 µM and 5.8 µM
GI50 (UACC-62 melanoma): 8.32 µM and 18 µM
TGI (UACC-62 melanoma): 18.3 µM and 33.4 µM
TGI (XF 498 CNS): 3.69 µM
